According to ChEMBL document CHEMBL1201862, “PubChem BioAssay data set” (2004):
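Exposure lasted 48 hours, with cells grown in 96-well plates and compounds tested at five concentrations. Abbreviation: GI50, concentration required for 50% inhibition of growth.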 The source made the active and inactive calls. Cut-off read from the data, not from the text of the source: active = GI50 up to about 1.1 µM and inactive = higher.

Legend:
Assay in all cases: NCI anticancer screen, dose series, 48 h
OVCAR-8 = system: OVCAR-8
PC-3 = system: PC-3
SK-MEL-28 = system: SK-MEL-28
SF-268 = system: SF-268
HCC 2998 = system: HCC 2998
SNB-19 = system: SNB-19
RXF 393 = system: RXF 393
IGROV-1 = system: IGROV-1
LOX IMVI = system: LOX IMVI
M14 = system: M14
SF-539 = system: SF-539
CCRF-CEM = system: CCRF-CEM
SK-MEL-5 = system: SK-MEL-5
NCI/ADR-RES = system: NCI/ADR-RES
RPMI-8226 = system: RPMI-8226
Malme-3M = system: Malme-3M
SR = system: SR
MCF7 = system: MCF7
HL-60 = system: HL-60
SN12C = system: SN12C
EKVX = system: EKVX
CAKI-1 = system: CAKI-1
MDA-N = system: MDA-N
NCI-H522 = system: NCI-H522
Hs-578T = system: Hs-578T
MDA-MB-231 = system: MDA-MB-231
BT-549 = system: BT-549
U-251 = system: U-251
SK-MEL-2 = system: SK-MEL-2
786-0 = system: 786-0
HCT-15 = system: HCT-15
UACC-257 = system: UACC-257
SNB-75 = system: SNB-75
COLO 205 = system: COLO 205
OVCAR-5 = system: OVCAR-5
ACHN = system: ACHN
T47D = system: T47D
A549 = system: A549
MOLT-4 = system: MOLT-4
MDA-MB-435 = system: MDA-MB-435
KM12 = system: KM12
K562 = system: K562
UACC-62 = system: UACC-62
NCI-H226 = system: NCI-H226
SW-620 = system: SW-620
NCI-H460 = system: NCI-H460
OVCAR-4 = system: OVCAR-4
HOP-92 = system: HOP-92
OVCAR-3 = system: OVCAR-3
SF-295 = system: SF-295
DU-145 = system: DU-145
TK-10 = system: TK-10
A498 = system: A498
HOP-62 = system: HOP-62
HCT-116 = system: HCT-116
SK-OV-3 = system: SK-OV-3
UO-31 = system: UO-31
HT-29 = system: HT-29
NCI-H23 = system: NCI-H23

## CC1=C(C(=O)N[C@@H](CC(C)C)C(=O)O)N2C(=O)[C@@H](NC(=O)C(N)c3ccccc3)[C@H]2SC1 (stereo partly specified)
OVCAR-8
  GI50: > 100 µM (inactive)
PC-3
  GI50: > 100 µM (inactive)
SK-MEL-28
  GI50: > 100 µM (inactive)
SF-268
  GI50: > 100 µM (inactive)
HCC 2998
  GI50: > 100 µM (inactive)
SNB-19
  GI50: > 100 µM (inactive)
RXF 393
  GI50: > 100 µM (inactive)
IGROV-1
  GI50: > 100 µM (inactive)
LOX IMVI
  GI50: > 100 µM (inactive)
M14
  GI50: > 100 µM (inactive)
SF-539
  GI50: > 100 µM (inactive)
CCRF-CEM
  GI50: > 100 µM (inactive)
SK-MEL-5
  GI50: > 100 µM (inactive)
NCI/ADR-RES
  GI50: > 100 µM (inactive)
RPMI-8226
  GI50: > 100 µM (inactive)
Malme-3M
  GI50: > 100 µM (inactive)
SR
  GI50: > 100 µM (inactive)
MCF7
  GI50: > 100 µM (inactive)
HL-60
  GI50: > 100 µM (inactive)
SN12C
  GI50: > 100 µM (inactive)
EKVX
  GI50: > 100 µM (inactive)
CAKI-1
  GI50: > 100 µM (inactive)
MDA-N
  GI50: > 100 µM (inactive)
NCI-H522
  GI50: > 100 µM (inactive)
Hs-578T
  GI50: > 100 µM (inactive)
MDA-MB-231
  GI50: > 100 µM (inactive)
BT-549
  GI50: > 100 µM (inactive)
U-251
  GI50: > 100 µM (inactive)
SK-MEL-2
  GI50: > 100 µM (inactive)
786-0
  GI50: > 100 µM (inactive)
HCT-15
  GI50: > 100 µM
UACC-257
  GI50: > 100 µM (inactive)
SNB-75
  GI50: > 100 µM (inactive)
COLO 205
  GI50: > 100 µM (inactive)
OVCAR-5
  GI50: > 100 µM (inactive)
ACHN
  GI50: > 100 µM (inactive)
T47D
  GI50: > 100 µM (inactive)
A549
  GI50: > 100 µM (inactive)
MOLT-4
  GI50: > 100 µM (inactive)
MDA-MB-435
  GI50: > 100 µM (inactive)
KM12
  GI50: > 100 µM (inactive)
K562
  GI50: > 100 µM (inactive)
UACC-62
  GI50: 79.3 µM (inactive)
NCI-H226
  GI50: 60.4 µM (inactive)
SW-620
  GI50: > 100 µM (inactive)
NCI-H460
  GI50: > 100 µM (inactive)
OVCAR-4
  GI50: > 100 µM (inactive)
HOP-92
  GI50: > 100 µM (inactive)
OVCAR-3
  GI50: > 100 µM (inactive)
SF-295
  GI50: > 100 µM (inactive)
DU-145
  GI50: > 100 µM (inactive)
TK-10
  GI50: > 100 µM (inactive)
A498
  GI50: > 100 µM (inactive)

## CC(NC(NC(C)C12CC3CC(CC(C3)C1)C2)=C(C(Cl)=C(Cl)Cl)[N+](=O)[O-])C12CC3CC(CC(C3)C1)C2 (stereo unspecified)
OVCAR-8
  GI50: 2.77 µM (inactive)
PC-3
  GI50: 8.3 µM (inactive)
SK-MEL-28
  GI50: 26.4 µM (inactive)
HOP-62
  GI50: 32.7 µM (inactive)
SF-268
  GI50: 21.8 µM (inactive)
HCC 2998
  GI50: 23.4 µM (inactive)
SNB-19
  GI50: 30.2 µM (inactive)
RXF 393
  GI50: 13 µM (inactive)
IGROV-1
  GI50: 8.02 µM (inactive)
LOX IMVI
  GI50: 9.95 µM (inactive)
HCT-116
  GI50: 9.04 µM (inactive)
M14
  GI50: 16.4 µM (inactive)
SF-539
  GI50: 20.9 µM (inactive)
CCRF-CEM
  GI50: 0.923 µM (active)
SK-MEL-5
  GI50: 13.2 µM (inactive)
NCI/ADR-RES
  GI50: 12 µM (inactive)
RPMI-8226
  GI50: > 36.7 µM (inactive)
Malme-3M
  GI50: 26.7 µM (inactive)
SK-OV-3
  GI50: 71.1 µM (inactive)
SR
  GI50: 3.9 µM (inactive)
UO-31
  GI50: 31.9 µM (inactive)
MCF7
  GI50: 8.36 µM (inactive)
SN12C
  GI50: 7.59 µM (inactive)
EKVX
  GI50: 11.3 µM (inactive)
CAKI-1
  GI50: 16.9 µM (inactive)
HT-29
  GI50: 4.62 µM (inactive)
MDA-N
  GI50: 22.7 µM (inactive)
NCI-H522
  GI50: 7.11 µM (inactive)
Hs-578T
  GI50: 3.83 µM (inactive)
MDA-MB-231
  GI50: 4.5 µM (inactive)
BT-549
  GI50: 24 µM (inactive)
U-251
  GI50: 3.38 µM (inactive)
SK-MEL-2
  GI50: 15 µM (inactive)
786-0
  GI50: 13 µM (inactive)
HCT-15
  GI50: 18.7 µM
UACC-257
  GI50: 14.5 µM (inactive)
SNB-75
  GI50: 43.4 µM (inactive)
COLO 205
  GI50: 8.51 µM (inactive)
OVCAR-5
  GI50: 32.1 µM (inactive)
ACHN
  GI50: 28.2 µM (inactive)
T47D
  GI50: 20.4 µM (inactive)
A549
  GI50: 6.31 µM (inactive)
MOLT-4
  GI50: 19.5 µM (inactive)
MDA-MB-435
  GI50: 27.2 µM (inactive)
KM12
  GI50: 47.3 µM (inactive)
K562
  GI50: 9.08 µM (inactive)
UACC-62
  GI50: 30 µM (inactive)
NCI-H226
  GI50: > 26.2 µM (inactive)
SW-620
  GI50: 17.6 µM (inactive)
NCI-H460
  GI50: 4.36 µM (inactive)
NCI-H23
  GI50: 7.96 µM (inactive)
OVCAR-4
  GI50: 8.3 µM (inactive)
HOP-92
  GI50: 3.58 µM (inactive)
OVCAR-3
  GI50: 9.71 µM (inactive)
SF-295
  GI50: 24.9 µM (inactive)
DU-145
  GI50: 45 µM (inactive)
TK-10
  GI50: 33.3 µM (inactive)
A498
  GI50: 36.1 µM (inactive)
